Results taken from PMC5218480 (PLoS ONE, 2017).

Test system: MV-4-11 cells
Experiment: Gene expression microarray analysis (Affymetrix PrimeView) and GSEA
Assay type: cell-based, human
Design: RFU PODN (11730768_x_at) / Fold change /veh PODN (11730768_x_at) / RFU LINC00158 (11744669_a_at) / Fold change /veh LINC00158 (11744669_a_at) / RFU DUSP10 (11751237_a_at) / Fold change /veh DUSP10 (11751237_a_at) / RFU ID3 (11757404_x_at) / Fold change /veh ID3 (11757404_x_at) / RFU PLEKHG5 (11737974_s_at) / Fold change /veh PLEKHG5 (11737974_s_at) / RFU LRRC4B (11730491_at) / Fold change /veh LRRC4B (11730491_at) / RFU GIMAP4 (11747438_a_at) / Fold change /veh GIMAP4 (11747438_a_at) / RFU KRT8 (11758183_x_at) / Fold change /veh KRT8 (11758183_x_at) / RFU CNN1 (11734310_a_at) / Fold change /veh CNN1 (11734310_a_at) / RFU VPS37D (11726825_at) / Fold change /veh VPS37D (11726825_at) / RFU C10orf10 (11716522_x_at) / Fold change /veh C10orf10 (11716522_x_at) / RFU KIR2DL2 /// KIR2DL4 /// KIR2DL5A /// KIR2DL5B /// KIR2DS1 /// KIR2DS2 /// KIR2DS3 /// KIR2DS4 /// KIR3DL3 /// KIR3DL3 /// KIR3DS1 (11738374_at) / Fold change /veh KIR2DL2 /// KIR2DL4 /// KIR2DL5A /// KIR2DL5B /// KIR2DS1 /// KIR2DS2 /// KIR2DS3 /// KIR2DS4 /// KIR3DL3 /// KIR3DL3 /// KIR3DS1 (11738374_at) / RFU C1QL1 (11718748_at) / Fold change /veh C1QL1 (11718748_at) / RFU TMPRSS4 (11747572_a_at) / Fold change /veh TMPRSS4 (11747572_a_at) / RFU HAMP (11756126_x_at) / Fold change /veh HAMP (11756126_x_at) / RFU RNFT2 (11725882_a_at) / Fold change /veh RNFT2 (11725882_a_at) / RFU NR4A2 (11747474_a_at) / Fold change /veh NR4A2 (11747474_a_at) / RFU ABCC12 (11746883_a_at) / Fold change /veh ABCC12 (11746883_a_at) / RFU TMEM136 (11760407_x_at) / Fold change /veh TMEM136 (11760407_x_at) / RFU CLDN22 /// WWC2 (11732394_at) / Fold change /veh CLDN22 /// WWC2 (11732394_at) / RFU HLA-DPB1 (11760878_x_at) / Fold change /veh HLA-DPB1 (11760878_x_at) / RFU SPINT1 (11716480_a_at) / Fold change /veh SPINT1 (11716480_a_at) / RFU GAP43 (11754022_s_at) / Fold change /veh GAP43 (11754022_s_at) / RFU A4GNT (11735810_at) / Fold change /veh A4GNT (11735810_at) / RFU PRB3 (11715151_x_at) / Fold change /veh PRB3 (11715151_x_at) / RFU TUBB4B (11761932_at) / Fold change /veh TUBB4B (11761932_at) / RFU CAPN14 (11732068_a_at) / Fold change /veh CAPN14 (11732068_a_at) / RFU TMCC2 (11721928_a_at) / Fold change /veh TMCC2 (11721928_a_at) / RFU IRGQ (11745062_a_at) / Fold change /veh IRGQ (11745062_a_at) / RFU FAM174B (11720279_a_at) / Fold change /veh FAM174B (11720279_a_at) / RFU TMPRSS4 (11748680_a_at) / Fold change /veh TMPRSS4 (11748680_a_at) / RFU FAM212B (11763350_a_at) / Fold change /veh FAM212B (11763350_a_at) / RFU PLEKHG5 (11743358_a_at) / Fold change /veh PLEKHG5 (11743358_a_at) / RFU ZSCAN30 (11745921_a_at) / Fold change /veh ZSCAN30 (11745921_a_at) / RFU CMKLR1 (11741424_a_at) / Fold change /veh CMKLR1 (11741424_a_at) / RFU LOC101060620 /// MAPK8IP1 (11723275_at) / Fold change /veh LOC101060620 /// MAPK8IP1 (11723275_at) / RFU SPTSSB (11747773_x_at) / Fold change /veh SPTSSB (11747773_x_at) / RFU PRSS12 (11739890_at) / Fold change /veh PRSS12 (11739890_at) / RFU BIN1 (11741810_x_at) / Fold change /veh BIN1 (11741810_x_at) / RFU WNT11 (11732464_a_at) / Fold change /veh WNT11 (11732464_a_at) / RFU C10orf10 (11716521_a_at) / Fold change /veh C10orf10 (11716521_a_at) / RFU C5orf56 (11738089_at) / Fold change /veh C5orf56 (11738089_at) / RFU CYB561 (11721691_x_at) / Fold change /veh CYB561 (11721691_x_at) / RFU ANKRD19P (11752326_a_at) / Fold change /veh ANKRD19P (11752326_a_at) / RFU OR2T12 /// OR2T33 /// OR2T8 (11738714_s_at) / Fold change /veh OR2T12 /// OR2T33 /// OR2T8 (11738714_s_at) / RFU VCAN (11748164_a_at) / Fold change /veh VCAN (11748164_a_at) / RFU JSRP1 (11732532_at) / Fold change /veh JSRP1 (11732532_at) / RFU KRTAP10-11 (11738290_x_at) / Fold change /veh KRTAP10-11 (11738290_x_at) / RFU MYO3A (11730013_a_at) / Fold change /veh MYO3A (11730013_a_at) / RFU EBF3 (11725865_a_at) / Fold change /veh EBF3 (11725865_a_at) / RFU CAMK2N1 (11719241_x_at) / Fold change /veh CAMK2N1 (11719241_x_at) / RFU C5orf56 (11738088_a_at) / Fold change /veh C5orf56 (11738088_a_at) / RFU OLFML3 (11715873_a_at) / Fold change /veh OLFML3 (11715873_a_at) / RFU LOC100653217 /// NTM (11731650_a_at) / Fold change /veh LOC100653217 /// NTM (11731650_a_at) / RFU MAPK11 (11762145_a_at) / Fold change /veh MAPK11 (11762145_a_at) / RFU FIZ1 (11724087_x_at) / Fold change /veh FIZ1 (11724087_x_at) / RFU OASL (11726364_x_at) / Fold change /veh OASL (11726364_x_at) / RFU SOX15 (11748057_x_at) / Fold change /veh SOX15 (11748057_x_at) / RFU CD79A (11719716_a_at) / Fold change /veh CD79A (11719716_a_at) / RFU HIST1H1D (11736915_at) / Fold change /veh HIST1H1D (11736915_at) / RFU CASKIN2 (11723855_a_at) / Fold change /veh CASKIN2 (11723855_a_at) / RFU LOC730098 (11760151_x_at) / Fold change /veh LOC730098 (11760151_x_at) / RFU OR4N2 (11742367_at) / Fold change /veh OR4N2 (11742367_at) / RFU PRRT2 (11749266_a_at) / Fold change /veh PRRT2 (11749266_a_at) / RFU SNX32 (11753110_a_at) / Fold change /veh SNX32 (11753110_a_at) / RFU CDHR5 (11726645_a_at) / Fold change /veh CDHR5 (11726645_a_at) / RFU RCAN1 (11760418_a_at) / Fold change /veh RCAN1 (11760418_a_at) / RFU FAM167A (11723789_a_at) / Fold change /veh FAM167A (11723789_a_at) / RFU FAM26E (11764081_at) / Fold change /veh FAM26E (11764081_at) / RFU ISYNA1 (11749810_s_at) / Fold change /veh ISYNA1 (11749810_s_at) / RFU ACY1 (11761880_at) / Fold change /veh ACY1 (11761880_at) / RFU 11764098_at / Fold change /veh 11764098_at / RFU SAMD14 (11745864_x_at) / Fold change /veh SAMD14 (11745864_x_at) / RFU NPB (11741838_a_at) / Fold change /veh NPB (11741838_a_at) / RFU TMPRSS6 (11731388_a_at) / Fold change /veh TMPRSS6 (11731388_a_at) / RFU KRTAP10-2 (11738614_at) / Fold change /veh KRTAP10-2 (11738614_at) / RFU ARHGAP8 /// PRR5-ARHGAP8 (11727945_x_at) / Fold change /veh ARHGAP8 /// PRR5-ARHGAP8 (11727945_x_at) / RFU KRTAP5-7 /// NADSYN1 (11734609_at) / Fold change /veh KRTAP5-7 /// NADSYN1 (11734609_at) / RFU RASL12 (11751679_a_at) / Fold change /veh RASL12 (11751679_a_at) / RFU CDKN2B (11736163_a_at) / Fold change /veh CDKN2B (11736163_a_at) / RFU PRF1 (11729649_at) / Fold change /veh PRF1 (11729649_at) / RFU, ZNF638 /// ZNF638-IT1 / Fold change vs veh, ZNF638 /// ZNF638-IT1 / RFU, PANK3 / Fold change vs veh, PANK3 / RFU, SH3YL1 / Fold change vs veh, SH3YL1 / RFU, ZEB2 / Fold change vs veh, ZEB2 / RFU, NRIP1 / Fold change vs veh, NRIP1 / RFU, PTTG1IP / Fold change vs veh, PTTG1IP / RFU, CAPN2 / Fold change vs veh, CAPN2 / RFU, MED14 / Fold change vs veh, MED14 / RFU, SNORA58 / Fold change vs veh, SNORA58 / RFU, C1orf63 / Fold change vs veh, C1orf63 / RFU, LRRFIP1 / Fold change vs veh, LRRFIP1 / RFU, NDUFAF7 / Fold change vs veh, NDUFAF7 / RFU, SLC12A2 / Fold change vs veh, SLC12A2 / RFU, IBTK / Fold change vs veh, IBTK / RFU, ESF1 / Fold change vs veh, ESF1 / Fold change vs veh, TMEM50B / RFU, TAOK1 / Fold change vs veh, TAOK1 / RFU, ACBD3 / Fold change vs veh, ACBD3 / RFU, TMA16 / Fold change vs veh, TMA16 / RFU, RWDD3 / Fold change vs veh, RWDD3 / RFU, BCAT1 / Fold change vs veh, BCAT1 / RFU, EDEM3 / Fold change vs veh, EDEM3 / RFU, TMEM33 / Fold change vs veh, TMEM33 / RFU, WDR75 / Fold change vs veh, WDR75 / RFU, AHCTF1 / Fold change vs veh, AHCTF1 / RFU, TFRC / Fold change vs veh, TFRC / RFU, ZDHHC17 / Fold change vs veh, ZDHHC17 / RFU, NOM1 / Fold change vs veh, NOM1 / RFU, ARL8B / Fold change vs veh, ARL8B / RFU, ZBTB11 / Fold change vs veh, ZBTB11 / RFU, TAMM41 / Fold change vs veh, TAMM41 / RFU, KIAA1704 /// LOC100996395 / Fold change vs veh, KIAA1704 /// LOC100996395 / RFU, ING1 / Fold change vs veh, ING1 / RFU, TRMT61B / Fold change vs veh, TRMT61B / RFU, FUBP3 / Fold change vs veh, FUBP3 / RFU, TP53 / Fold change vs veh, TP53 / RFU, TNKS2 / Fold change vs veh, TNKS2 / RFU, ZFP14 / Fold change vs veh, ZFP14 / RFU, ACTR2 / Fold change vs veh, ACTR2 / RFU, PPP3R1 / Fold change vs veh, PPP3R1 / RFU, PIK3R1 / Fold change vs veh, PIK3R1 / RFU, HNRNPA1 / Fold change vs veh, HNRNPA1 / RFU, RNF170 / Fold change vs veh, RNF170 / RFU, ZNF28 / Fold change vs veh, ZNF28 / RFU, RNGTT / Fold change vs veh, RNGTT / RFU, OGT / Fold change vs veh, OGT / RFU, BRD1 / Fold change vs veh, BRD1 / RFU, MARS / Fold change vs veh, MARS / RFU, ZNF655 / Fold change vs veh, ZNF655 / RFU, FAHD1 / Fold change vs veh, FAHD1 / RFU, BDP1 / Fold change vs veh, BDP1 / RFU, LRRCC1 / Fold change vs veh, LRRCC1 / RFU, ARID1A / Fold change vs veh, ARID1A / RFU, ZNF146 / Fold change vs veh, ZNF146 / RFU, ZNF330 / Fold change vs veh, ZNF330 / RFU, GPN3 / Fold change vs veh, GPN3 / RFU, C9orf123 / Fold change vs veh, C9orf123 / RFU, N4BP2L2 / Fold change vs veh, N4BP2L2 / RFU, ARFIP1 / Fold change vs veh, ARFIP1 / RFU, FAM179B / Fold change vs veh, FAM179B / RFU, BCL10 / Fold change vs veh, BCL10 / RFU, UHRF1BP1L / Fold change vs veh, UHRF1BP1L / RFU, BET1 / Fold change vs veh, BET1 / RFU, CNOT2 / Fold change vs veh, CNOT2 / RFU, ZNF268 / Fold change vs veh, ZNF268 / Fold change vs veh, ZNF507 / RFU, DGCR2 / Fold change vs veh, DGCR2 / RFU, WDSUB1 / Fold change vs veh, WDSUB1 / Fold change vs veh, HSP90B1 /// MIR3652 / RFU, ADSS / Fold change vs veh, ADSS / RFU, GK / Fold change vs veh, GK / RFU, ZNF148 / Fold change vs veh, ZNF148 / RFU, TAF9 / Fold change vs veh, TAF9 / RFU, SLC1A5 / Fold change vs veh, SLC1A5 / RFU, SLMO2 / Fold change vs veh, SLMO2 / RFU, ABCC4 / Fold change vs veh, ABCC4 / RFU, LOC101060439 /// RAP1B / Fold change vs veh, LOC101060439 /// RAP1B / RFU, RFX7 / Fold change vs veh, RFX7 / RFU, GTPBP10 / Fold change vs veh, GTPBP10 / RFU, CNEP1R1 / Fold change vs veh, CNEP1R1 / RFU, BIVM-ERCC5 /// ERCC5 / Fold change vs veh, BIVM-ERCC5 /// ERCC5 / RFU, ILF3 / Fold change vs veh, ILF3 / RFU 11762660_at / Fold change /veh 11762660_at / RFU VCAN (11757783_s_at) / Fold change /veh VCAN (11757783_s_at) / RFU DDX43 (11728927_at) / Fold change /veh DDX43 (11728927_at) / RFU KRT8 (11758188_x_at) / Fold change /veh KRT8 (11758188_x_at) / RFU NKD1 (11759106_at) / Fold change /veh NKD1 (11759106_at) / RFU SRD5A1 (11742802_a_at) / Fold change /veh SRD5A1 (11742802_a_at) / RFU TPSAB1 /// TPSB2 (11721975_s_at) / Fold change /veh TPSAB1 /// TPSB2 (11721975_s_at) / RFU GSTM3 (11746129_a_at) / Fold change /veh GSTM3 (11746129_a_at) / RFU IL23R (11737362_x_at) / Fold change /veh IL23R (11737362_x_at) / RFU TMEM51 (11727254_a_at) / Fold change /veh TMEM51 (11727254_a_at) / RFU PIWIL2 (11732686_x_at) / Fold change /veh PIWIL2 (11732686_x_at) / RFU ORM1 (11744905_x_at) / Fold change /veh ORM1 (11744905_x_at) / RFU CCDC152 (11743942_at) / Fold change /veh CCDC152 (11743942_at) / RFU ECM1 (11717891_a_at) / Fold change /veh ECM1 (11717891_a_at) / RFU IL23R (11748794_a_at) / Fold change /veh IL23R (11748794_a_at) / RFU TNFAIP8L3 (11732012_x_at) / Fold change /veh TNFAIP8L3 (11732012_x_at) / RFU MBOAT4 (11741988_at) / Fold change /veh MBOAT4 (11741988_at) / RFU 11764193_at / Fold change /veh 11764193_at / RFU TMEM53 (11763286_at) / Fold change /veh TMEM53 (11763286_at) / RFU MAGEB2 (11727129_at) / Fold change /veh MAGEB2 (11727129_at) / RFU TMEM200A (11744735_a_at) / Fold change /veh TMEM200A (11744735_a_at) / RFU CCDC152 (11751479_a_at) / Fold change /veh CCDC152 (11751479_a_at) / RFU FAM211A (11726209_a_at) / Fold change /veh FAM211A (11726209_a_at) / RFU RGS16 (11746705_a_at) / Fold change /veh RGS16 (11746705_a_at) / RFU VCAN (11755009_s_at) / Fold change /veh VCAN (11755009_s_at) / RFU RHOB (11743442_s_at) / Fold change /veh RHOB (11743442_s_at) / RFU RGS16 (11720943_a_at) / Fold change /veh RGS16 (11720943_a_at) / RFU RGS16 (11720944_at) / Fold change /veh RGS16 (11720944_at) / RFU, VPS4B / Fold change vs veh, VPS4B / RFU, CREB1 / Fold change vs veh, CREB1 / RFU, DNAJC13 / Fold change vs veh, DNAJC13 / RFU, GNAQ / Fold change vs veh, GNAQ / RFU, CDK5R1 / Fold change vs veh, CDK5R1 / RFU, ZRANB3 / Fold change vs veh, ZRANB3 / RFU, CUL4A / Fold change vs veh, CUL4A / RFU, CCNY / Fold change vs veh, CCNY / RFU, UFL1 / Fold change vs veh, UFL1 / RFU, COG3 / Fold change vs veh, COG3 / RFU, DIAPH2 / Fold change vs veh, DIAPH2 / RFU, SKA2 / Fold change vs veh, SKA2 / RFU, AFF3 / Fold change vs veh, AFF3 / RFU, LMF1 / Fold change vs veh, LMF1 / RFU, IPO11 / Fold change vs veh, IPO11 / RFU, DFFB / Fold change vs veh, DFFB / RFU, FOXP1 / Fold change vs veh, FOXP1 / RFU, CARD8 / Fold change vs veh, CARD8 / RFU, STRN3 / Fold change vs veh, STRN3 / RFU, ADK / Fold change vs veh, ADK / RFU, RASSF2 / Fold change vs veh, RASSF2 / RFU, WIPF1 / Fold change vs veh, WIPF1 / RFU, LARP1B / Fold change vs veh, LARP1B / RFU, RASA1 / Fold change vs veh, RASA1 / RFU, RB1 / Fold change vs veh, RB1 / RFU, PPFIA1 / Fold change vs veh, PPFIA1 / RFU, MAT2A / Fold change vs veh, MAT2A / RFU, CCT5 / Fold change vs veh, CCT5 / RFU, WDR92 / Fold change vs veh, WDR92 / RFU, CUX1 / Fold change vs veh, CUX1 / RFU, TTC7A / Fold change vs veh, TTC7A / RFU, TMEM135 / Fold change vs veh, TMEM135 / RFU, DEPTOR / Fold change vs veh, DEPTOR / RFU, CPM / Fold change vs veh, CPM / RFU, DNAJB6 / Fold change vs veh, DNAJB6 / RFU, CACNA2D3 / Fold change vs veh, CACNA2D3 / RFU, DTX4 / Fold change vs veh, DTX4 / RFU, TFCP2 / Fold change vs veh, TFCP2 / RFU, GMCL1 /// GMCL1P1 / Fold change vs veh, GMCL1 /// GMCL1P1 / RFU, AEBP2 / Fold change vs veh, AEBP2 / RFU, SNHG1 /// SNORD22 /// SNORD25 /// SNORD26 /// SNORD27 /// SNORD28 /// SNORD29 /// SNORD31 / Fold change vs veh, SNHG1 /// SNORD22 /// SNORD25 /// SNORD26 /// SNORD27 /// SNORD28 /// SNORD29 /// SNORD31 / Fold change (Aza/veh), C12orf56 (ProbeSet 11735607_a_at) / Fold change (ACY-1035/veh), C12orf56 (ProbeSet 11735607_a_at) / Fold change (Aza/veh), FGFR1OP (ProbeSet 11751329_s_at) / Fold change (ACY-1035/veh), FGFR1OP (ProbeSet 11751329_s_at) / Fold change (Aza/veh), VPS36 (ProbeSet 11739960_a_at) / Fold change (ACY-1035/veh), VPS36 (ProbeSet 11739960_a_at) / RFU SYPL1 (11715823_x_at) / Fold change /veh SYPL1 (11715823_x_at) / RFU IGFBP7 (11715501_s_at) / Fold change /veh IGFBP7 (11715501_s_at) / RFU REEP3 (11722064_at) / Fold change /veh REEP3 (11722064_at) / RFU IGLL1 (11728026_x_at) / Fold change /veh IGLL1 (11728026_x_at): dose or concentration left out as unconfirmed
Conditions: ProbeSet 11760938_a_at; LIST D

## Nc1ccc(-c2cccs2)cc1NC(=O)c1ccc2c(c1)cc(C1CC1)n2CCN1CCOCC1 [ACY-1035]
  Fold change vs veh, MAT2A: 0.84
